Activity calls are given as the source filed them.
Columns and labels:
[1] = CEM21 lymphoblast cell cytotoxicity, dose response, cytotoxicity control for viral fusion inhibitor project, CellTiter-Glo luminescence, cherry-picked (AID 652042); type: functional, cell-based;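 further: potency for signal decrease meaning cytotoxicity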
[2] = target: COUP transcription factor 2 (Homo sapiens, UniProt P24468); assay: Luminescence-based cell-based high throughput dose response assay to identify inhibitors of COUP-TFII (NR2F2).; type: functional;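 further: HEK293 cells transiently cotransfected with COUP-TFII expression vector and reporter; luciferase reporter luminescence driven by COUP-TFII from the pX2-168 reporter plasmid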
Sequence of COUP transcription factor 2 (P24468 whole entry, the tested form may be a part): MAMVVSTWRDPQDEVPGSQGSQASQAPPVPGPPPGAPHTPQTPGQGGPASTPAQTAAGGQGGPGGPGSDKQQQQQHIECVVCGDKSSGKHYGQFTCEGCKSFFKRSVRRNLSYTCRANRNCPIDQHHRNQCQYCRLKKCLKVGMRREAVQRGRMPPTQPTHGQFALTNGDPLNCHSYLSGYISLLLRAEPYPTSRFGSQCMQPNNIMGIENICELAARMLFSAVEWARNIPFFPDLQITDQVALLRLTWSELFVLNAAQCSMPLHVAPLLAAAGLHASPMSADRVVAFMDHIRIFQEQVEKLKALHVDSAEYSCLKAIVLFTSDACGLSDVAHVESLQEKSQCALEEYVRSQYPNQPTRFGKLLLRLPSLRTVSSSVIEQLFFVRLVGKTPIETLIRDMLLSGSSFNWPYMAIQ

[3] = off-target signal loss in HeLa-CEM21 co-culture – HeLa F-luc CTL cells, cherry-picked, counter-screen for HIV-1 Env fusion inhibitor project, dose response (AID 652040); type: functional, cell-based;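 further: potency for signal decrease marking cytotoxic or nonspecific inhibition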
[4] = inhibitors of clade B AD8 Env fusion, dose response, cell-based, cherry-pick (AID 652062); type: functional;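 further: luciferase signal from cell-cell fusion driven by HIV-1 clade B AD8 Env; potency is for inhibitors of fusion seen as a drop in luminescence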
[5] = T. cruzi growth inhibition in host cells, dose response, cell-based, plate reader, dry powder, set 2 (AID 652275); type: functional
[6] = cytotoxicity in COV434 cells, dose response, cytotoxicity control for PAX8 inhibitor project, cell-based, plate reader, dry powder, SA7 (AID 743145); type: functional
[7] = cytotoxicity in COV362 ovarian cancer cells, dose response, cytotoxicity control for PAX8 inhibitor project, cell-based, plate reader, dry powder, SA12 (AID 743144); type: functional
[8] = PAX5 activity inhibitors, dose response, selectivity assay for PAX8 inhibitor project, cell-based, plate reader, dry powder samples (AID 743047); type: functional;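 further: HEK293 cells carrying a Pax5 driven CD19 promoter luciferase reporter; potency of inhibitors that lower reporter luminescence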
Paired box protein Pax-8 = Paired box protein Pax-8 (Homo sapiens, UniProt Q06710); assay: inhibitors of PAX8-driven TPO luciferase reporter, dose response, RMG-I cells, cherry-pick (AID 687027); type: functional, cell-based;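 further: luciferase reporter driven by Pax8 target thyroperoxidase promoter measured by SteadyGlo luminescence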
Sequence of Paired box protein Pax-8 (Q06710 whole entry): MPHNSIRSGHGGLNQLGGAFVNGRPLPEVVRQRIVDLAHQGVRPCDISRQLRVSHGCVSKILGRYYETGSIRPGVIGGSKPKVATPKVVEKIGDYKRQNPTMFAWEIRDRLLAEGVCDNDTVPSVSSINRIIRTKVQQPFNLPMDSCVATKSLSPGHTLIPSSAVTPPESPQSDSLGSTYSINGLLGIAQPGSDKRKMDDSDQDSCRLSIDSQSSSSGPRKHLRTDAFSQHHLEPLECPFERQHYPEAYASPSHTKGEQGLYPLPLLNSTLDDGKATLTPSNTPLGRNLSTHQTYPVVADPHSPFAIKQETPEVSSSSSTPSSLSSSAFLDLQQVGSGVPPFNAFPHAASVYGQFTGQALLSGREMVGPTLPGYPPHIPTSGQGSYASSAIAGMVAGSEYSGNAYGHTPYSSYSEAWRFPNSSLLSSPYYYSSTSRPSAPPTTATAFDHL

[9] = cytotoxicity dependent on PAX8, dose response, cell-based, plate reader, dry powder (AID 743049); type: functional
[10] = PAX2 cell-based inhibition, dose response, selectivity assay for PAX8 inhibitor project, plate reader, dry powder samples (AID 743048); type: functional;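 further: HEK293 cells carrying a WT1 promoter luciferase reporter driven by expressed Pax2; potency is for inhibition of Pax2 driven reporter signal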
[11] = ADAM10 protease inhibitors, dose response, selectivity assay for ADAM17 exosite inhibitor project, biochemical, FRET peptide substrate, recombinant human ADAM10 (AID 743259);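 further: ADAM10 enzyme cleaving a FRET peptide substrate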
[12] = target: Disintegrin and metalloproteinase domain-containing protein 17 (Homo sapiens, UniProt P78536); assay: exosite inhibitors of ADAM17, dose response, biochemical (AID 743260)
Sequence of Disintegrin and metalloproteinase domain-containing protein 17 (P78536 whole entry, the tested form may be a part): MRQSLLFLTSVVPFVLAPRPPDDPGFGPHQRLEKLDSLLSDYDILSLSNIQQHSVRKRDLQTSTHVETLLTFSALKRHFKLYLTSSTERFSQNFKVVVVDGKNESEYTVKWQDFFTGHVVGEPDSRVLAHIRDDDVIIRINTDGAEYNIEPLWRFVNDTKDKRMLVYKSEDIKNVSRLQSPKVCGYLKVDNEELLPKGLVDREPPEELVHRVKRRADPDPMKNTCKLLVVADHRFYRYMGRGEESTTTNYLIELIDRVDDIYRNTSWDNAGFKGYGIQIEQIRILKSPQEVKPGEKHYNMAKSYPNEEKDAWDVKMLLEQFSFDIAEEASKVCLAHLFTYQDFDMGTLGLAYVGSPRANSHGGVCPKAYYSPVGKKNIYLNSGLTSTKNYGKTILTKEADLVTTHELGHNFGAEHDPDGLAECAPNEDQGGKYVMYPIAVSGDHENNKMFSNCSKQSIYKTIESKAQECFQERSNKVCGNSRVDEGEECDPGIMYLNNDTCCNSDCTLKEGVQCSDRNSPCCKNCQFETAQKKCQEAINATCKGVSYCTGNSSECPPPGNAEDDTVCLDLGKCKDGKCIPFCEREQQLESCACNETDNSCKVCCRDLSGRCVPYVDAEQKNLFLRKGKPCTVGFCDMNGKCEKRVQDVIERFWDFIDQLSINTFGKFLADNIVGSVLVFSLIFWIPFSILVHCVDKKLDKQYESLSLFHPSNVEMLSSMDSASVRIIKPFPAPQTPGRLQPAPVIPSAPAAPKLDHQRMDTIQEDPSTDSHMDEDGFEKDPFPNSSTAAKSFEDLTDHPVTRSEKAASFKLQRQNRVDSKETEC

Albumin = Albumin (Bos taurus, UniProt P02769); assay: Counterscreen for inhibitors of T-cell receptor (TCR)-CD3 interaction: Fluorescence-based biochemical high throughput dose response assay to identify inhibitors of T-cell receptor (TCR)-CD3 interaction using a TAMRA-labeled BSA probe.; type: functional
Sequence of Albumin (P02769 whole entry): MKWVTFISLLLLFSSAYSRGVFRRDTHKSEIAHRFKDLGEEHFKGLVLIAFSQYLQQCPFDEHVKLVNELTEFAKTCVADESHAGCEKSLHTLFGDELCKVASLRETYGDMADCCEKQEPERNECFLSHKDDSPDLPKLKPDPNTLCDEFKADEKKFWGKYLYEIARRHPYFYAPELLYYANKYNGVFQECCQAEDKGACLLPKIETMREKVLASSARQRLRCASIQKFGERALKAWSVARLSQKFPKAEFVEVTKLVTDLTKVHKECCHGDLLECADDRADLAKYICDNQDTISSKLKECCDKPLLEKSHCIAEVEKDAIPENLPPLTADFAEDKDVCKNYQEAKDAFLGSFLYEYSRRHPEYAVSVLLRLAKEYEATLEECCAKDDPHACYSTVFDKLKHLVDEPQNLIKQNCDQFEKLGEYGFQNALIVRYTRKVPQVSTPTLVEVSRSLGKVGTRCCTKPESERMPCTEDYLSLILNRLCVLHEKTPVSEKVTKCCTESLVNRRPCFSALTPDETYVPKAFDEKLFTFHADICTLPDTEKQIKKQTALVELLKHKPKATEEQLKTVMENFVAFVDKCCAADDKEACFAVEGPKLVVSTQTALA

[13] = target: FAD-linked sulfhydryl oxidase ALR (Homo sapiens, UniProt P55789); assay: inhibitors of human ALR sulfhydryl oxidase, dose response, biochemical, H2O2 detection, luminescence, cherry-pick (AID 493248)
Sequence of FAD-linked sulfhydryl oxidase ALR (P55789 whole entry): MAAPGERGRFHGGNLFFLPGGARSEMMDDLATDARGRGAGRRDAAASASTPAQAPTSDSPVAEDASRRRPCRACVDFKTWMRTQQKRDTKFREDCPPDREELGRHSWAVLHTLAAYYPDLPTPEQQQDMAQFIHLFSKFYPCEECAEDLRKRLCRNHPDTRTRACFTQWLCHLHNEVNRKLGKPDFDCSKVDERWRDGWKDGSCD

cells [14] = type: functional, cell-based
Cytochrome P450 2C9 = Cytochrome P450 2C9 (Homo sapiens, UniProt P11712)
Sequence of Cytochrome P450 2C9 (P11712 whole entry): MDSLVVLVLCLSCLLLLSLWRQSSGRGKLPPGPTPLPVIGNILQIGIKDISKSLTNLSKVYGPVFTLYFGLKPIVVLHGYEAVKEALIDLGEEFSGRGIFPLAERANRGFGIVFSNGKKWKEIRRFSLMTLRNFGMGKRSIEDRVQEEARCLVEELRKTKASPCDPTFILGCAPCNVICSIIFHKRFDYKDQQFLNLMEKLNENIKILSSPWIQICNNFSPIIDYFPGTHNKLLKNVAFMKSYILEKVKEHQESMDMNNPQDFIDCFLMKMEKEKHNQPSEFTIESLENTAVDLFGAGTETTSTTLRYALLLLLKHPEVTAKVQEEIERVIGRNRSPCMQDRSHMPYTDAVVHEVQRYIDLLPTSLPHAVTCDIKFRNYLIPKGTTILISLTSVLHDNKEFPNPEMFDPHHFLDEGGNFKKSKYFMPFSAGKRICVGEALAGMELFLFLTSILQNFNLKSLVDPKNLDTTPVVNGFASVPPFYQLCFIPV

[15] = target: T1, Trace amine-associated receptor 1 (Homo sapiens, UniProt Q96RJ0); assay: Counterscreen for agonists of the human trace amine associated receptor 1 (hTAAR1): Fluorescence-based cell-based high throughput dose response assay to identify hTAAR1 agonist that also desensitize TAAR1 receptor response.; type: functional
T1 sequence (Q96RJ0 whole entry): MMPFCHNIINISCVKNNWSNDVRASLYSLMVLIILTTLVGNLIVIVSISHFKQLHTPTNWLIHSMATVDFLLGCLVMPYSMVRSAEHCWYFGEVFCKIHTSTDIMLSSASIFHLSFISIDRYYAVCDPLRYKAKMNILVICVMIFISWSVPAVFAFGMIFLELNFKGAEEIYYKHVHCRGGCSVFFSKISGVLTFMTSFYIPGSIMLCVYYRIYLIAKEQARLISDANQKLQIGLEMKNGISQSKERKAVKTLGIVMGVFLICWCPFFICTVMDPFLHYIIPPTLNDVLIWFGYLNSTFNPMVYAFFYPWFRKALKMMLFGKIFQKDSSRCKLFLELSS

cells [16] = type: functional, cell-based; remark: listed apart in the source
[17] = target: T1, Trace amine-associated receptor 1; assay: Fluorescence-based cell-based high throughput dose response assay to identify agonists of the human trace amine associated receptor 1 (TAAR1).; type: functional
[18] = inhibitors of HIV Env-driven cell fusion, dose response, cherry-pick (AID 652057); type: functional, cell-based
Galanin receptor type 3 = Galanin receptor type 3 (Homo sapiens, UniProt O60755); assay: Fluorescence-based cell-based primary high throughput dose response assay to identify antagonists of the Galanin Receptor 3 (GalR3).; type: functional
Sequence of Galanin receptor type 3 (O60755 whole entry): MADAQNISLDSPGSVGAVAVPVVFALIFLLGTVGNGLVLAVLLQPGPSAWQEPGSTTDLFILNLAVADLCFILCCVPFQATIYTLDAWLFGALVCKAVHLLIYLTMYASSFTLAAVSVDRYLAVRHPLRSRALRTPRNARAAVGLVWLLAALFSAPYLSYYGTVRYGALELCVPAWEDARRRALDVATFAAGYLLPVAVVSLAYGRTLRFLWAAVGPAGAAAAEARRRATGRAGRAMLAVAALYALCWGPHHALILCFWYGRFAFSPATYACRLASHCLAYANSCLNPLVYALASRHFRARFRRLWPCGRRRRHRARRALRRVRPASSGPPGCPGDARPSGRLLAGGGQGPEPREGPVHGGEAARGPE

cells [19] = type: functional, cell-based; settings: HEK-CNG

N#CCSc1nnc(-c2sc3ccccc3c2Cl)o1
AC50 [1]: 46.4 µM (active)
IC50 [2]: 12 µM (inactive)
AC50 [3]: > 70 µM (inactive)
AC50 [4]: 6.32 µM (active)

CN(C)C(=O)c1cccc(-c2ccc([C@H]3[C@@H](CO)N4CCCCN(C(=O)C5CCCC5)C[C@@H]34)cc2)c1
AC50 [5]: 0.691 µM (active)

C[C@H](CO)N1C[C@H](C)[C@@H](CN(C)Cc2ccc(-c3ccccc3)cc2)Oc2ccc(NS(=O)(=O)c3ccccc3)cc2CC1=O
AC50 [6]: 37.2 µM (active)
AC50 [7]: 26.3 µM (active)
AC50 [8]: 14.8 µM (active)
AC50 (Paired box protein Pax-8): 17.4 µM (active)
AC50 [9]: 30.4 µM (active)
AC50 [10]: 8 µM (active)

Cc1nn(Cc2ccccc2Cl)c2sc(C(=O)NCc3ccc4c(c3)OCO4)cc12
IC50 [11]: > 69.5 µM (inactive)
IC50 [12]: > 69.5 µM (inactive)

COC(=O)c1cc(O)c(O)c(O)c1 [GALLIC ACID METHYL ESTER]
IC50 (Albumin): > 94.3 µM (inactive)
AC50 [13]: 4.94 µM (active)

CC(C)N1C[C@@H](CN(C)Cc2ccc(Cl)cc2)Oc2c(NC(=O)c3ccccc3)cccc2C1=O
AC50 [5]: 1.49 µM (active)

Cc1cccc(/C=N\Nc2cnnc(O)c2Cl)c1
EC50 (cells [14]): > 29.9 µM (inactive)
AC50 (Cytochrome P450 2C9): 28.2 µM (inconclusive)
IC50 [15]: 7.33 µM (active)
IC50 (cells [16]): > 29.9 µM (inactive)
AC50 [3]: 0.76 µM (active)
EC50 [17]: 1.28 µM (active)
AC50 [18]: 1.06 µM (active)

CC(=O)OCC[N+](C)(C)C.[O-][Cl+3]([O-])([O-])[O-]
IC50 (Galanin receptor type 3): 0.618 µM (active)
EC50 (cells [19]): > 29.9 µM (inactive)
